According to the NIST ThermoML archive (doi:10.1016/j.jct.2009.08.009):

Test: xn = mol fraction of the nth substance listed
Details: 101 kPa, Liquid; for viscosity: Capillary tube (Ostwald / Ubbelohde) method; for speed of sound: Sing-around technique in a fixed-path interferometer; for mass density: Vibrating tube method

CCOCCOCCO [3,6-dioxa-1-octanol] + CCCCCCCCCCO
Details | mass density [kg/m3] | speed of sound [m/s] | viscosity [mPa·s]
293.15 K, x1 = 0.0607 | 836.419 | 1394.1 | 11.4
293.15 K, x1 = 0.109 | 841.997 | 1392.3 | 10.28
293.15 K, x1 = 0.1561 | 847.628 | 1390.6 | 9.367
293.15 K, x1 = 0.2105 | 854.439 | 1388.9 | 8.743
293.15 K, x1 = 0.2599 | 862.044 | 1387.4 | 7.761
293.15 K, x1 = 0.3089 | 867.859 | 1386.6 | 7.383
293.15 K, x1 = 0.3533 | 874.329 | 1385.8 | 6.336
293.15 K, x1 = 0.4923 | 896.636 | 1385.3 | 5.731
293.15 K, x1 = 0.5986 | 916.267 | 1387.2 | 5.141
293.15 K, x1 = 0.7153 | 940.786 | 1392.6 | 4.525
293.15 K, x1 = 0.7918 | 959.008 | 1398.6 | 4.186
293.15 K, x1 = 0.901 | 988.518 | 1412.6 | 3.899
293.15 K, x1 = 1 | – | – | 3.626
298.15 K, x1 = 0.0607 | 832.969 | 1377 | 9.658
298.15 K, x1 = 0.109 | 838.521 | 1375.3 | 8.774
298.15 K, x1 = 0.1561 | 844.112 | 1373.6 | 8.059
298.15 K, x1 = 0.2105 | 850.88 | 1371.8 | 7.574
298.15 K, x1 = 0.2599 | 858.441 | 1370.5 | 6.868
298.15 K, x1 = 0.3089 | 864.217 | 1369.6 | 6.353
298.15 K, x1 = 0.3533 | 870.65 | 1368.9 | 6.008
298.15 K, x1 = 0.4923 | 892.825 | 1368.4 | 5.027
298.15 K, x1 = 0.5986 | 912.348 | 1370.3 | 4.479
298.15 K, x1 = 0.7153 | 936.739 | 1375.7 | 4.005
298.15 K, x1 = 0.7918 | 954.872 | 1381.7 | 3.729
298.15 K, x1 = 0.901 | 984.244 | 1395.6 | 3.449
298.15 K, x1 = 1 | – | – | 3.278
303.15 K, x1 = 0.0607 | 829.51 | 1360.1 | 8.114
303.15 K, x1 = 0.109 | 835.031 | 1358.4 | 7.312
303.15 K, x1 = 0.1561 | 840.589 | 1356.8 | 6.739
303.15 K, x1 = 0.2105 | 847.315 | 1355.1 | 6.387
303.15 K, x1 = 0.2599 | 854.826 | 1353.7 | 5.858
303.15 K, x1 = 0.3089 | 860.567 | 1352.8 | 5.366
303.15 K, x1 = 0.3533 | 866.962 | 1352.1 | 5.083
303.15 K, x1 = 0.4923 | 889.005 | 1351.7 | 4.338
303.15 K, x1 = 0.5986 | 908.42 | 1353.7 | 3.859
303.15 K, x1 = 0.7153 | 932.679 | 1358.9 | 3.458
303.15 K, x1 = 0.7918 | 950.728 | 1364.9 | 3.235
303.15 K, x1 = 0.901 | 979.965 | 1378.8 | 3.021
303.15 K, x1 = 1 | – | – | 2.862
308.15 K, x1 = 0.0607 | 826.037 | 1343.3 | 6.698
308.15 K, x1 = 0.109 | 831.525 | 1341.6 | 6.116
308.15 K, x1 = 0.1561 | 837.051 | 1340.1 | 5.838
308.15 K, x1 = 0.2105 | 843.734 | 1338.4 | 5.38
308.15 K, x1 = 0.2599 | 851.204 | 1336.9 | 4.826
308.15 K, x1 = 0.3089 | 856.908 | 1336.2 | 4.528
308.15 K, x1 = 0.3533 | 863.255 | 1335.5 | 4.319
308.15 K, x1 = 0.4923 | 885.17 | 1335.1 | 3.697
308.15 K, x1 = 0.5986 | 904.477 | 1337 | 3.346
308.15 K, x1 = 0.7153 | 928.613 | 1342.4 | 2.978
308.15 K, x1 = 0.7918 | 946.566 | 1348.3 | 2.817
308.15 K, x1 = 0.901 | 975.664 | 1362.1 | 2.67
308.15 K, x1 = 1 | – | – | 2.507
